Data on 5 compounds can be found in patent US20110171261A1, “IMMUNOGENIC COMPOSITION” (priority 2008, published 2011).

Data set [1] concerns CD4+CD25+ regulatory T cells. Briefly: Cell viability of Tregs. It is filed as cell-based, human.
The target in a further data set is T1, CXCR4 (Homo sapiens, UniProt P61073).
T1 construct: Expression of chemokine receptors CCR4 and CXCR4 by CCRF-CEM cells; endogenous in cells; host or cells: CCRF-CEM
Briefly: CXCL12-mediated (CXCR4) chemotaxis of CCRF-CEM cells, specificity. It is filed as cell-based. The settings on record: 3 nM CXCL12; 2 μM CCR4 antagonists (1000 times higher than IC50); n=2. As for the experimental part: FIG. 2: Assessment of the specificity of CCR4 antagonists. (A) Expression of chemokine receptors CCR4 and CXCR4 by CCRF-CEM cells.
Cell migration was measured by chemotaxis through a 5 μm pore polycarbonate filter in 24-well transwell chambers (Costar, Cambridge, Mass.). Chemokines (R&D systems) were placed in lower chambers in 600 μl RPMI/1% FCS medium and cells were placed in upper chambers in 100 μl medium. After 2 h incubation at 37° C., cells in the lower chamber were recovered and counted with a FACSCalibur (Becton Dickinson, Mountain View, Calif.). Preliminary chemokine titration experiments established optimal doses for chemotaxis: (1) for CCRF-CEM cells, 6 nM CCL22 and 3 nM CCL17 or CXCL12; (2) for Tregs and Th2 cells, 1.2 nM CCL22 or CCL17. To assess CCR4 antagonism, candidate antagonist compounds (10 nM) were mixed directly with chemokines as indicated. Percent inhibition of chemotaxis by CCR4 antagonists was calculated in relation to controls treated with solvent (DMSO) alone as follows: ([no. cells migrated in the presence of DMSO—no. cells migrated in the presence of antagonist]/no. cells migrated in the presence of DMSO)×100. To measure IC50 values, graded doses of antagonists were added to a constant concentration of CCL22.
CCRF-CEM also expresses another chemokine receptor, CXCR4 (FIG. 2A), which allowed the specificity of the CCR4 antagonists to be tested. With the exception of one antagonist, the compounds had no effect on either CXCR4-mediated migration (FIG. 2B) or cell viability (data not shown), even at concentrations 1000 times higher than their IC50 values (˜2 μM)

The next data set addresses T2, CCR4 (Mus musculus, UniProt P51680).
T2 construct: endogenous in cells
T2 sequence (P51680 1-360): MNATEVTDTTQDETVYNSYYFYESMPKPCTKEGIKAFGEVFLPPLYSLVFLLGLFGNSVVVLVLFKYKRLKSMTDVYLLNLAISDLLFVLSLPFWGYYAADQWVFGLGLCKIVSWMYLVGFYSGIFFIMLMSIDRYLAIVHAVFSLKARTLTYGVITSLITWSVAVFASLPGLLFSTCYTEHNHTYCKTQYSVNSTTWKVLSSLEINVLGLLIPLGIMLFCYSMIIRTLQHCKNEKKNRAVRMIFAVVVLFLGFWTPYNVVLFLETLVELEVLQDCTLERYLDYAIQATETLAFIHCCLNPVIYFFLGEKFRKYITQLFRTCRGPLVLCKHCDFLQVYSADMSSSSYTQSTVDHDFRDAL
Briefly: CCR4-mediated migration of mouse cells in vitro. The data set is classed as cell-based. The settings on record: data not shown.

Data set [2] deals with PPD-reactive IFN-γ-secreting cells. Briefly: T cell response (IFN-γ ELISPOT and CBA) in mice after MVA85A vaccination. The data set is classed as in vivo, BALB/c mice. The settings on record: i.m., MVA85A plus ~2.5 μM antagonist, 6 days post vaccination, splenocytes, 20 μg/ml PPD; for frequency of PPD-reactive IFN-γ-secreting cells (ELISPOT): vs DMSO; for production of IFN-γ in PPD-stimulated cultures (supernatant, CBA): 18 h.

The test system of data set [3] is HBsAg specific antibodies. Briefly: Anti-HBsAg IgG ELISA after rHBsAg vaccination of mice. The data set is classed as in vivo, BALB/c mice. The settings on record: 14 days after second vaccination.
For data set [4], the system named is antibody response to the HBsAg. Briefly: ELISA of sera of mice immunised with HBsAg in SP50 adjuvant at different concentrations (Example 6). It is filed as in vivo, Balb/c mice. As to conditions: s.c., 0.5 micrograms HBsAg with SP50 at 1 millimolar, 100 micromolar or 10 micromolar, boost day 14, bled 14 days later, all concentrations. The text has this:
FIG. 7: CCR4 antagonist SP50 (Compound VIII—AF-399/42016530—4-(1-benzofuran-2-ylcarbonyl)-1-[5-(benzylsulfanyl)-1,3,4-thiadiazol-2-yl]-3-hydroxy-5-(2-thienyl)-1,5-dihydro-2H-pyrrol-2-one. MW: 531.64. Formula: C26H17N3O4S3) enhances the immunogenicity of a vaccine in vivo. The graph in FIG. 7 depicts the results of an ELISA assay of sera of mice immunised with HBsAg in different concentrations of SP50 adjuvant or of HBsAg in DMSO (negative control) or of HBsAG in the commercially used vaccine composition Engerix™. […] Each line represents the mean of a group of 4 mice.
6 week old female Balb/c mice were used, and immunised with a recombinant Hepatitis B surface antigen (HBsAg) from Biospacific, 598 Horton St no 225, Emeryville Calif. 94608, Catalogue number J44050228 lot number 4475.
Groups of 4 mice were given 0.5 micrograms of HBsAg subcutaneously in 25 microlitres of saline with an equal volume of SP50 at concentrations of 1 millimolar, 100 micromolar or 10 micromolar. Controls received 0.5 micrograms of HBsAg plus 25 microlitres of DMSO (the vehicle used to dissolve the SP50). A second control group received a dose of the alum-adjuvanted commercial Hepatitis B vaccine “Engerix” containing 0.5 micrograms of HBsAg. 14 days later the mice were boosted in an identical fashion and they were bled out a further 14 days later. […]

T1 sequence (P61073 whole entry): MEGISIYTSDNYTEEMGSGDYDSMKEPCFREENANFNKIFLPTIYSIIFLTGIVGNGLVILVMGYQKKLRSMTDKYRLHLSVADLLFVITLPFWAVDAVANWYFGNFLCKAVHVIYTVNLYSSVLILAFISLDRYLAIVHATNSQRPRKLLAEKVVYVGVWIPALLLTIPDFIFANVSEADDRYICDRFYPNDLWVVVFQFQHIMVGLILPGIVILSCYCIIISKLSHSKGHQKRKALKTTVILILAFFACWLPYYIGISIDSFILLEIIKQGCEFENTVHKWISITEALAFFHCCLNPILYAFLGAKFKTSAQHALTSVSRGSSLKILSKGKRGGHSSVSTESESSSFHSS

With `O=C(C1=C(O)C(=O)N(c2nnc(SCc3ccccc3Cl)s2)C1c1ccc(Cl)c(Cl)c1)c1cc2ccccc2o1` (stereo not shown) [(III)], in data set [1], the “effect on cell viability” value is on record as “None of the compounds affected cell viability”. Further, the “effect on CXCL12-mediated chemotaxis (CXCR4-mediated migration) of CCRF-CEM cells” value (from here on “effect on CXCL12-mediated chemotaxis”) on CXCR4 is on record as “do not inhibit”.

Take `O=C(C1=C(O)C(=O)N(c2nnc(SCc3ccc(Cl)cc3)s2)C1c1cccs1)c1cc2ccccc2o1` (stereo not shown) [(V)]: the “effect on cell viability” value in data set [1] is “None of the compounds affected cell viability”. In addition, on CCR4, the “inhibition of CCR4-mediated migration of mouse cells in vitro” value was “inhibit”. Also, in data set [2], the “frequency of PPD-reactive IFN-γ-secreting cells (ELISPOT)” value was “significantly enhanced” and the “production of IFN-γ in PPD-stimulated cultures (supernatant, CBA)” value is listed as “significantly greater production”. Further, the “effect on CXCL12-mediated chemotaxis” value on CXCR4 is “do not inhibit”.

On to `CCc1ccc(C2C(C(=O)c3cc4ccccc4o3)=C(O)C(=O)N2c2nnc(SCc3ccccc3F)s2)cc1` (stereo not shown) [(VI)], for which the “effect on cell viability” value in data set [1] is reported as “None of the compounds affected cell viability”. Also, on CXCR4, the “effect on CXCL12-mediated chemotaxis” value was “do not inhibit”.

As for `O=C(CSc1nc(-c2ccccc2)c(-c2ccccc2)o1)Nc1ccc(S(=O)(=O)Nc2nccs2)cc1` [(XI)], the “effect on cell viability” value in data set [1] was “None of the compounds affected cell viability”. For the same compound, the “effect on CXCL12-mediated chemotaxis” value on CXCR4 is on record as “do not inhibit”.

For the compound `O=C(C1=C(O)C(=O)N(c2nnc(SCc3ccccc3)s2)C1c1cccs1)c1cc2ccccc2o1` (stereo not shown) [compound (VIII), 4-(1-benzofuran-2-ylcarbonyl)-1-[5-(benzylsulfanyl)-1,3,4-thiadiazol-2-yl]-3-hydroxy-5-(2-thienyl)-1,5-dihydro-2H-pyrrol-2-one], in data set [1], the “effect on cell viability” value is on record as “None of the compounds affected cell viability”. Further, at CCR4, the “inhibition of CCR4-mediated migration of mouse cells in vitro” value is “inhibit”. The “IgG subclass of anti-HBsAg IgG response” value in data set [3] was “predominantly of the IgG1 subtype”. Further, the “titer of HBsAg specific antibodies (IgG, ELISA)” value in data set [3] (s.c., rHBsAg plus compound (~2.5 μM), vs DMSO) is “significantly enhanced the titer of HBsAg specific antibodies to a level similar to that of Engerix-B”. Further, the “antibody response to the HBsAg (ELISA of sera)” value in data set [4] is “greater than that to Engerix™”. In addition, in data set [2], the “frequency of PPD-reactive IFN-γ-secreting cells (ELISPOT)” value is “significantly enhanced” and the “production of IFN-γ in PPD-stimulated cultures (supernatant, CBA)” value is “significantly greater production”. Also, the “effect on CXCL12-mediated chemotaxis” value on CXCR4 is given as “do not inhibit”.
